The source of these data is patent publication US20200354426A1 (MEDIMMUNE LIMITED, priority 2016, published 2020).

Numbered stars: 1 amine (or outer) side, 2 acyl side, 3 side chain; on linkers, the order of the positions; unused ones are H or OH. Side chains are listed from the residue outwards. Peptide text beside a SMILES is read from it. * marks the point of attachment. γGlu = O=C(O)[C@H](CCC(=O)[*:2])N[*:1]; Palmitoyl = CCCCCCCCCCCCCCCC(=O)*

Data set [1] concerns the target Human GLP1R (Homo sapiens, UniProt P43220).
The target of data set [2] is T1, Mouse GlucR (Mus musculus, UniProt Q61606).
T1 construct: expressed in transfected cells
T1 sequence (Q61606 27-485): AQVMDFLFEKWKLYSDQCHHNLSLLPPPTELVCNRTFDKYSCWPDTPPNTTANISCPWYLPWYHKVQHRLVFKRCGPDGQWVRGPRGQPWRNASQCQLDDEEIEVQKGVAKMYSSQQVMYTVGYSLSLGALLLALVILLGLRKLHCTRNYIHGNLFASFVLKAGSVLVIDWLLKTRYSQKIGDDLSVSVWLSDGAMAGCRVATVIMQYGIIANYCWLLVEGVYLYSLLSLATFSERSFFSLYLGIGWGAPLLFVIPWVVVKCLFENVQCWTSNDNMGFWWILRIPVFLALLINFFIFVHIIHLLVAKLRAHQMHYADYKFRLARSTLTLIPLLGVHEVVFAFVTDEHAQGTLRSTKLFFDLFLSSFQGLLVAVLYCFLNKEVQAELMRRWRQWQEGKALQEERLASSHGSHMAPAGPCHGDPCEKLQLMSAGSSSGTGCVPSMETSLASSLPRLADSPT
The data set is described as follows: cAMP assay in 3.2% mouse serum albumin (assay 2). The class given is cell-based. As to conditions: relative potencies vs natural ligands. Background: cAMP levels reflect the balance of adenylyl cyclase and phosphodiesterase activity.

The test system of data set [3] is diet induced obesity (DIO) mouse model. The data set is described as follows: Diet induced obesity (DIO) mouse model, study B. Format: in vivo. As to conditions: for HOMA / BeHy / FGF21 / Hepatic TG / Plasma Cholesterol / Plasma TG: day 14. The source says: Female C57/B16JHsdOla (obtained from Harlan Laboratories. UK) were started on a high fat diet of D12492 (Research Diets, NJ, USA) and a chocolate confection, delicato ball (Delicata Bakverk, Sweden) at 9-11 weeks of age, and were maintained on the diet for 16 weeks prior to arrival to the animal facility, during a three week acclimation period and during drug treatment, caloric content of the two components of the diet is shown in Table 11. The mice were divided into 9 groups (n=5-6), and treatment was started at 29 weeks of age.
The body weight of the animals was monitored daily throughout the dosing period. At day 14, blood samples for the measurement of plasma glucose and insulin from conscious mice were obtained after a 4-hour fasting period. Mice were then anaesthetized using isoflourane and terminal blood was collected from the capillary bed behind the eye. The following parameters were measured: blood chemistry measurements of triglycerides, total cholesterol, non-esterified fatty acids (NEFA), beta-hydroxybutyrate and fibroblast growth factor 21 (FGF21) (Table 16 and Table 17 below).

Human GLP1R, sequence (P43220 24-463): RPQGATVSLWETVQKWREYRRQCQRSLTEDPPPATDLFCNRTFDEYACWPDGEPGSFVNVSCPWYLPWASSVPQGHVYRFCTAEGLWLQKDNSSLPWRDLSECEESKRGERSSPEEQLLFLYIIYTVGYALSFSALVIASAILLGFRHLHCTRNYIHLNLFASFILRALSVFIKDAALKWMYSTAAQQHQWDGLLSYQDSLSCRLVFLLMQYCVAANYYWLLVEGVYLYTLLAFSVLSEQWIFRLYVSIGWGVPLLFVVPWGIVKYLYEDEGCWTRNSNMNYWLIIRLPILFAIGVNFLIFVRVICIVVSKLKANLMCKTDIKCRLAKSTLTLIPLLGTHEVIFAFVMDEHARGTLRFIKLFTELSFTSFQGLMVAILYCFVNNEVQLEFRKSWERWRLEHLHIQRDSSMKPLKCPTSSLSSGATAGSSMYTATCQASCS

Regarding `CCCCCCCCCCCCCCCC(=O)N[C@@H](CCC(=O)NCCCC[C@H](NC(=O)[C@H](CCCCN)NC(=O)[C@H](CO)NC(=O)[C@H](Cc1ccc(O)cc1)NC(=O)[C@H](CC(=O)O)NC(=O)[C@H](CO)NC(=O)[C@@H](NC(=O)[C@H](Cc1ccccc1)NC(=O)[C@@H](NC(=O)CNC(=O)[C@H](CCC(N)=O)NC(=O)[C@H](CO)NC(=O)[C@@H](N)Cc1c[nH]cn1)[C@@H](C)O)[C@@H](C)O)C(=O)N[C@@H](CC(C)C)C(=O)N[C@@H](CC(=O)O)C(=O)N[C@@H](CO)C(=O)N[C@@H](CCC(=O)O)C(=O)N[C@@H](CCCNC(=N)N)C(=O)N[C@@H](C)C(=O)N[C@@H](CCCNC(=N)N)C(=O)N[C@@H](CC(=O)O)C(=O)N[C@@H](Cc1ccccc1)C(=O)N[C@H](C(=O)N[C@@H](C)C(=O)N[C@@H](Cc1c[nH]c2ccccc12)C(=O)N[C@@H](CC(C)C)C(=O)N[C@H](C(=O)N[C@@H](C)C(=O)NCC(=O)NCC(N)=O)C(C)C)C(C)C)C(=O)O` [Peptide G730] (H-HSQGTFTSDYSKK([γGlu-Palmitoyl])LDSERARDFVAWLVAGG-NH2; N-terminus assumed), the “free peptide at 4.4% HSA” value in data set [1] came out at 0.85%. The “Mouse GlucR/GLP1R Ratio” value in data set [2] was 0.04.

Consider “L-Histidyl-L-seryl-L-glutaminylglycyl-L-threonyl-L-phenylalanyl-L-threonyl-L-seryl-L-alpha-aspartyl-(N6-[N-(1-oxohexadecyl)-L-gamma-gutamyl])L-lysy-L-sery-L-alpha-glutamyl-L-tyrosyl-L-leucyl-L-alpha-aspartyl-L-seryl-L-alpha-glutamyl-L-arginyl-L-alanyl-L-arginyl-L-alpha-L-aspartyl-L-phenylalanyl-L-valyl-L-alanyl-L-tryptophyl-L-leucyl-L-alpha-glutamyl-L-alanylglycylglycine [Peptide G933]”, for which the “BW day 14 (% change of vehicle mean)” value in data set [3] (5 nmol/kg sc twice daily 14 days) is reported as −11%. In addition, in data set [3] (5 nmol/kg sc twice daily), the HOMA worked out at 3.31. In data set [3] (10 nmol/kg sc twice daily 14 days), the “BW day 14 (% change of vehicle mean)” value is −19%. The HOMA in data set [3] (10 nmol/kg sc twice daily) is 1.98. Further, the “body weight over the 14 day dosing period” value in data set [3] (DIO mice, FIGS. 5-8) was “dose dependent and continuous weight loss”. For the same compound, in data set [3] (dose in Table 17: 5 nmol/kg), the BeHy is 593.56 µmol/L, the FGF21 was 4459 pg/mL, the “Hepatic TG” value came to 14.7 g TB/100 g tissue and the “Plasma Cholesterol” value came to 2.32 mM. In data set [3] (dose in Table 17: 5 nmol/kg), the “Plasma TG” value is 0.16 mM. In data set [3] (dose in Table 17: 50 nmol/kg), the BeHy is 673.08 µmol/L, the FGF21 is given as 2582 pg/mL, the “Hepatic TG” value worked out at 13.3 g TB/100 g tissue and the “Plasma Cholesterol” value stood at 2.88 mM. For the same compound, the “Plasma TG” value in data set [3] (dose in Table 17: 50 nmol/kg) is on record as 0.39 mM.
